Data on ten compounds can be found in patent publication US6410558B1, “Fungicides for the control of take-all disease of plants” (Monsanto Technology LLC, priority 1991, dated 2002).

Some results are limits rather than exact numbers.

Data set [1] relates to Gaeumannomyces graminis var. tritici (Ggt). The experiment in a line: In vitro Assay: mycelial growth of Ggt on minimal media agar plates containing test compound. The data set is classed as cell-based. The conditions noted are these: Gaeumannomyces graminis, dark, 19-20° C., 4 to 5 days, diameter of mycelial growth; for inhibition at 0.1 ppm: 0.1 ppm in minimal media agar, read-out: In vitro (ppm) 0.1, Percent Inhibition; for inhibition at 1 ppm: 1 ppm in minimal media agar, read-out: In vitro (ppm) 1, Percent Inhibition; for inhibition at 10 ppm: 10 ppm in minimal media agar, read-out: In vitro (ppm) 10, Percent Inhibition. The method in brief:
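Ggt mycelial diameter read after 4 to 5 days in darkness at 19-20° C, from three 4-mm plugs placed on Czapek Dox minimal agar containing test compound delivered in acetone. Inhibition expressed as percent versus untreated plates, plug size (4 mm) subtracted from both.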

The subject of data set [2] is Ggt. The experiment in a line: In vivo Assay: control of Ggt on wheat grown in pots of Ggt-infested soil, root disease rating. Set-up: species or system Gaeumannomyces graminis var. tritici. The conditions noted are these: Gaeumannomyces graminis, 672 h; 0.5 mg active ingredient per pot; 'Bergen' or 'Anza' wheat in Ggt-infested soil; after four weeks; vs untreated control; read-out: In vivo, percent disease control. In short, it runs like this: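 Wheat ('Bergen' or 'Anza') seeds in soil infested with Ggt-colonised oats (4% v/v) treated at 0.5 mg active ingredient per pot in acetone/water with Tween 20; five pots per treatment. After four weeks, seminal roots rated 0–5; trimmed mean of three replicates converted to percent disease control versus untreated.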

Regarding `CC(CCl)NC(=O)c1c(Cl)cccc1[Si](C)(C)C` (centres unmarked) [Example 171, 2-Chloro-N-(2-chloro-1-methylethyl)-6-(trimethylsilyl)benzamide], the melting point – broadly, the temperature, or range, at which the solid turns liquid – lay in the range of 150 to 151 °C. In addition, in data set [1], the inhibition (commonly the drop in the measured response relative to a control, in per cent) at 0.1 ppm stood at 48%; the inhibition at 1 ppm came out at 88%; the inhibition at 10 ppm is 97%. In addition, the pest or weed control at 0.5 mg/pot in data set [2] was found to be 87%.
The compound `CC1(c2cccc(F)c2C(=O)NCCCl)CCC1` [Example 199, N-(2-Chloroethyl)-2-fluoro-6-(1-methylcyclobutyl)benzamide] registered a melting point of 108 to 110 °C.
For `CCN(Cc1ccccc1)C(=O)c1c(Cl)cccc1[Si](C)(C)C` [Example 35, 2-Chloro-N-ethyl-N-(phenylmethyl)-6-(trimethylsilyl)benzamide], in data set [1], the inhibition at 0.1 ppm worked out at 3%, the inhibition at 1 ppm stood at 7% and the inhibition at 10 ppm stood at 93%. The pest or weed control at 0.5 mg/pot in data set [2] came out at 46%.
As for `CCCCCCCCNC(=O)c1c(Cl)cccc1[Si](C)(C)C` [Example 17, 2-Chloro-N-octyl-6-(trimethylsilyl)-benzamide], in data set [1], the inhibition at 0.1 ppm turned out to be 59%, the inhibition at 1 ppm is 64% and the inhibition at 10 ppm is 64%. Moreover, the pest or weed control at 0.5 mg/pot in data set [2] is below 0%.
Regarding `CCN(CC)C(=O)c1c(CF)cccc1[Si](C)(C)C` [Example 98, N,N-Diethyl-2-(fluoromethyl)-6-(trimethylsilyl)benzamide], in data set [1], the inhibition at 0.1 ppm came to 22%, the inhibition at 1 ppm came out at 81% and the inhibition at 10 ppm is 100%. For the same compound, in data set [2], the pest or weed control at 0.5 mg/pot came to 97%.
Turning to `C[Si](C)(C)c1cccc(Cl)c1C(=O)NCCO` [Example 27, 2-Chloro-N-(2-hydroxyethyl)-6-(trimethylsilyl)benzamide], in data set [1], the inhibition at 0.1 ppm worked out at 15%, the inhibition at 1 ppm is 13% and the inhibition at 10 ppm stood at 64%. The pest or weed control at 0.5 mg/pot in data set [2] worked out at 33%.
Consider `CCNC(=O)c1c([Si](C)(C)C)ccc(OC)c1Cl` [Example 219, 2-Chloro-N-ethyl-3-methoxy-6-(trimethylsilyl)benzamide], for which, in data set [1], the inhibition at 0.1 ppm was found to be 50%, the inhibition at 1 ppm was determined as 94% and the inhibition at 10 ppm was 100%. In addition, in data set [2], the pest or weed control at 0.5 mg/pot was 97%.
As to `CCSC(=O)c1c(Cl)cccc1[Si](C)(C)C` [Example 77, 2-Chloro-6-(trimethylsilyl)benzenecarbothioic acid, S-ethyl ester], in data set [1], the inhibition at 0.1 ppm was 13%, the inhibition at 1 ppm was 47% and the inhibition at 10 ppm worked out at 100%. Besides, the pest or weed control at 0.5 mg/pot in data set [2] was below 0%.
In the case of `CCNC(=O)c1c([Si](C)(C)C)ccc(Cl)c1F` [Example 218, 3-Chloro-N-ethyl-2-fluoro-6-(trimethylsilyl)benzamide], in data set [1], the inhibition at 0.1 ppm was determined as 18%, the inhibition at 1 ppm was 94% and the inhibition at 10 ppm is 100%. For the same compound, the pest or weed control at 0.5 mg/pot in data set [2] was found to be 99%.
In the case of `CCN(CC)C(=O)c1c(CF)ccc(F)c1[Si](C)(C)C` [Example 55, N,N-Diethyl-3-fluoro-6-(fluoromethyl)-2-(trimethylsilyl)benzamide], in data set [1], the inhibition at 0.1 ppm was found to be 49%, the inhibition at 1 ppm stood at 81% and the inhibition at 10 ppm stood at 100%. The pest or weed control at 0.5 mg/pot in data set [2] was 100%.
